Tests used:
[1] = target: Casein kinase I isoform delta (Homo sapiens, UniProt P48730); test: In vitro inhibitory concentration against human casein kinase 1 delta (CK1 delta) by using [gamma-33P]-ATP] as radioligand
[2] = target: Protein kinase C beta type (Homo sapiens, UniProt P05771); test: In vitro inhibitory concentration against human protein kinase C beta-2 (PKCbetaII) by using [gamma-33P]-ATP] as radioligand
[3] = target: Protein kinase C alpha type (Homo sapiens, UniProt P17252); test: In vitro inhibitory concentration against human protein kinase C alpha (PKCa) by using [gamma-33P]-ATP] as radioligand
[4] = target: Casein kinase II subunit alpha (Homo sapiens, UniProt P68400); test: In vitro inhibitory concentration against human casein kinase 2 (CK2) by using [gamma-33P]-ATP] as radioligand
Sequence of Casein kinase II subunit alpha (P68400 whole entry): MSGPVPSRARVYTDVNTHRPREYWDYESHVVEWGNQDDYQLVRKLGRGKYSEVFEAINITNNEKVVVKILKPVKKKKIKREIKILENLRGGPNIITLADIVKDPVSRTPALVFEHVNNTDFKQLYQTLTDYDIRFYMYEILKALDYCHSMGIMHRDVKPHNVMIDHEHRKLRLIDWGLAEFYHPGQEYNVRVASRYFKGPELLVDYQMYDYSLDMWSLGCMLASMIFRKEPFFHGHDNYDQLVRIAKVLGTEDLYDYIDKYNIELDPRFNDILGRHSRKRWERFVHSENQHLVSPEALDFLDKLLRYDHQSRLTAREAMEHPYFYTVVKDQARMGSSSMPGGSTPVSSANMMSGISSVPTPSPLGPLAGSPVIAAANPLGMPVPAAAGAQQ

[5] = target: T1, Serine/threonine-protein kinase Chk1 (Homo sapiens, UniProt O14757); test: In vitro inhibitory concentration against checkpoint kinase 1 (Chk1) by using [gamma-33P]-ATP] as radioligand
T1 sequence (O14757 whole entry): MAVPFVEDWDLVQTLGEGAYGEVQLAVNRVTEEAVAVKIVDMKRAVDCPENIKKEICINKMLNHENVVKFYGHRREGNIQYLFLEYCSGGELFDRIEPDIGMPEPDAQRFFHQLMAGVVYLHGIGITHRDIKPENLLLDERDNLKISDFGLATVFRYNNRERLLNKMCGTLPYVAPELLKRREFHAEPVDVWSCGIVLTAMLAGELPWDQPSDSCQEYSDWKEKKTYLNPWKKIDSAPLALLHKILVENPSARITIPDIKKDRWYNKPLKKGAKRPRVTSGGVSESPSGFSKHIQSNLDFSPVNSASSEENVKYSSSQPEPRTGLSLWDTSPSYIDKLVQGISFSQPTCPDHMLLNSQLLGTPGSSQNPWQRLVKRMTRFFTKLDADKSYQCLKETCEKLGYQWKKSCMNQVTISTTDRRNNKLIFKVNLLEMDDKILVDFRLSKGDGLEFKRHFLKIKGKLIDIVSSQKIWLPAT

[6] = target: Serine/threonine-protein kinase Chk2 (Homo sapiens, UniProt O96017); test: In vitro inhibitory concentration against checkpoint kinase 2 (Chk2) by using [gamma-33P]-ATP] as radioligand
Sequence of Serine/threonine-protein kinase Chk2 (O96017 whole entry): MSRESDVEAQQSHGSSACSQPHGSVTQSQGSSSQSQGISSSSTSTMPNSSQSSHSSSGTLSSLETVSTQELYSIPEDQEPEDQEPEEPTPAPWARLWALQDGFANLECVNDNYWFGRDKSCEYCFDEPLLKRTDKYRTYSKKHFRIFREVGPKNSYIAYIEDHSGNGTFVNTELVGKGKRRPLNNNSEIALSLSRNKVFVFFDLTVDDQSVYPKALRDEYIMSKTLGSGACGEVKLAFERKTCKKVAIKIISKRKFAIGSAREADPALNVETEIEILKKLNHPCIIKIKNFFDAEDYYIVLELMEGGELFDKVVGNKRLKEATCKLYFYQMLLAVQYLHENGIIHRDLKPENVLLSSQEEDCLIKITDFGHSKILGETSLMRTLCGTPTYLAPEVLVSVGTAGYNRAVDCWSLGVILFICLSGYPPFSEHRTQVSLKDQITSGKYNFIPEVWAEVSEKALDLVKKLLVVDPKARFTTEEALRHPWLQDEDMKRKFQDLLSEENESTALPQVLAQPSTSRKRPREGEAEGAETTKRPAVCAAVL

Sequence of Casein kinase I isoform delta (P48730 whole entry, canonical isoform): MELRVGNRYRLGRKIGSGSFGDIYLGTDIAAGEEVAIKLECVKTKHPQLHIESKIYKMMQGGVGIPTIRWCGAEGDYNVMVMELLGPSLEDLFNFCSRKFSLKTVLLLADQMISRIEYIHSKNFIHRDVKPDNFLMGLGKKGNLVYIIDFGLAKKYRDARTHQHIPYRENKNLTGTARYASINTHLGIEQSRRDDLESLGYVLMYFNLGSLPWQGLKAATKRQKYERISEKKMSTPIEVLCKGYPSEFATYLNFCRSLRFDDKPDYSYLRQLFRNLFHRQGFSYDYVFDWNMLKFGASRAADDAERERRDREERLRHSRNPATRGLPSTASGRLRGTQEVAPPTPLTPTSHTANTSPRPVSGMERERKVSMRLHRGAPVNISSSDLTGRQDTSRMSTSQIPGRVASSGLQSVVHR
Sequence of Protein kinase C beta type (P05771 whole entry): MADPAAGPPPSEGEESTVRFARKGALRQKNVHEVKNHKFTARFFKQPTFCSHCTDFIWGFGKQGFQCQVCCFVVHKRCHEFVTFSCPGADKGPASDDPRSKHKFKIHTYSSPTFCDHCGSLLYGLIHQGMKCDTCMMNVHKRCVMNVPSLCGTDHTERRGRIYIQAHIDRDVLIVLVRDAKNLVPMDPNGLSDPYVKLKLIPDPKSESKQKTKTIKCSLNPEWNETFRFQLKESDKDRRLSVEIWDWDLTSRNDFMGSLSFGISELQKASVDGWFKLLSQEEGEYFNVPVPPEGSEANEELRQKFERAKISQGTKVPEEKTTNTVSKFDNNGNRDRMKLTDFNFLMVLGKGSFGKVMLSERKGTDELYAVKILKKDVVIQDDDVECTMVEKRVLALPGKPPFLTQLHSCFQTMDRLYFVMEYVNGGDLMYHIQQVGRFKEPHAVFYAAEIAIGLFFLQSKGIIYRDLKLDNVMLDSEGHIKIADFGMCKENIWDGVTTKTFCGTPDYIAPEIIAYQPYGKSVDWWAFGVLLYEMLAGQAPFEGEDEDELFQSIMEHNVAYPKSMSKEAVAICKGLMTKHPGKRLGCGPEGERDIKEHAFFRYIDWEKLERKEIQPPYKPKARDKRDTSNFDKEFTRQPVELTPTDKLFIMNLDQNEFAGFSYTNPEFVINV

| IC50 [1] [nM] | IC50 [2] [nM] | IC50 [3] [nM] | IC50 [4] [nM] | IC50 [5] [nM] | IC50 [6] [nM] | SMILES |
| --- | --- | --- | --- | --- | --- | --- |
| 1350 | 3380 | 2540 | > 10000 | 237 | 8 | Nc1nc(C2=C3C(=Nc4ccccc43)C(=O)NCC2)c(O)[nH]1 |
| – | – | – | – | 725 | 183 | NC1=N/C(=C2/CCNC(=O)c3[nH]ccc32)C(=O)N1 [DEBROMOHYMENIALDISINE] |
| 35 | – | – | 7000 | 1950 | 42 | NC1=NC(=O)/C(=C2\CCNC(=O)c3[nH]c(Br)cc32)N1 [HYMENIALDISINE] |

— ChEMBL document CHEMBL1137167, “Potent inhibition of checkpoint kinase activity by a hymenialdisine-derived indoloazepine” (Bioorg Med Chem Lett, 2004)
